This note sets out measurements from US10485741B2 (WONKWANG UNIVERSITY CENTER FOR INDUSTRY-ACADEMY COOPERATION, priority 2016, dated 2019).

Type in all cases: cell-based, Streptococcus mutans
For one test, the system named is S. mutans (ATCC 25175). The test is described as follows: Agar diffusion test (paper disc), antibacterial substance alone. On the procedure: Specifically, S. mutans was primarily cultured in a BHI medium in a CO2 incubator at 37°C. for 24 hours. Then, 200 μL of a suspension of S. mutans was inoculated into BHI and secondarily cultured for 6 hours. Then, the OD value was measured with Eppendorf Biophotometer plus. After the measurement, the bacteria were mixed with top agar and then inoculated into the agar medium containing base agar. After top agar hardened, a 6 mm diameter paper disc was placed on the agar medium. 5 μL of each of 0.1 mM, 1 mM and 10 mM antibacterial substances was dropped on the paper disc. 10 μL/ml of ampicilin was used as the positive control, and PBS was used as the negative control. After culturing in a CO2 incubator at 37°C for 24 hours, the diameter of the S. mutans inhibition zone formed around the paper disc was measured in two perpendicular locations and the average was calculated to evaluate the antibacterial activities. The average was expressed in mm.

The test system of test [1] is S. mutans. The test is described as follows: Agar diffusion test of fluoride varnish of hydrogenated rosin mixed with antibacterial substance, inhibition zone. The conditions noted are these: for Inhibition zone, Fluoride varnish + 1 mM substance / Inhibition zone, Fluoride varnish + 10 mM substance: substance mixed 1:1 with fluoride varnish, positive control = ampicillin alone. On the procedure: Antibacterial substance powders were dissolved in DMSO to 100 mM and stored. It was diluted with DMSO to prepare 20 mM and 2 mM antibacterial substances.
Specifically, S. mutans was primarily cultured in a BHI medium in a CO2 incubator at 37°C. for 24 hours. Then, 200 μL of a suspension of S. mutans was inoculated into BHI and secondarily cultured for 6 hours. Then, the OD value was measured with Eppendorf Biophotometer plus. After the measurement, the bacteria were mixed with top agar and then inoculated into the agar medium containing base agar. After top agar hardened, a 6 mm diameter paper disc was placed on the agar medium.
5 μL of each of 0.1 mM, 1 mM and 10 mM antibacterial substances was dropped on the paper disc. 10 μL/ml of ampicilin was used as the positive control, and PBS was used as the negative control. After culturing in a CO2 incubator at 37°C for 24 hours, the diameter of the S. mutans inhibition zone formed around the paper disc was measured in two perpendicular locations and the average was calculated to evaluate the antibacterial activities. The average was expressed in mm.
Fluoride varnishes mixed with an antibacterial substance which comprise an antibacterial substance tested in Test Example 1 were prepared according to the method described in Example 2 and the antibacterial activities thereof were tested.

For test [2], the system named is S. mutans. The test is described as follows: Formation of Semi-inhibition zone by fluoride varnish mixed with antibacterial substance (agar diffusion). The conditions noted are these: Table 4; substance mixed 1:1 with fluoride varnish; positive control = ampicillin alone. An excerpt:
In addition, the formation of Semi-inhibition zone was investigated according to the same method as in Test Example 1.
(In general: In agar diffusion tests the substance spreads into inoculated agar from a disc or well.)

Test [3] concerns S. mutans. The test is described as follows: Minimum inhibitory concentration (MIC) and minimal bactericidal concentration (MBC), 96-well BHI broth dilution. The conditions noted are these: Streptococcus mutans. As to the method: The minimum inhibitory concentration and minimal bactericidal concentration of antibacterial substances were identified using S. mutans, which is related to dental caries, as the strain. Specifically, in order to measure MIC, a 96-well plate containing 100 μL of BHI broth per well was used. Antibacterial substances were used at a concentration of 16 mM, and the substance No. 1-2 of Example 1 was used at a concentration of 1 mM. The antibacterial materials were transferred to the first well and diluted stepwise. The substance No. 1-2 was diluted to 1 mM to 0.004375 mM and the other antibacterial substances were diluted to 16 mM to 0.007 mM. S. mutans was activated using BHI broth as the medium and cultured in a CO2 incubator at 37° C. for 24 hours. Then, the bacteria were cultured for another 6 hours, and then 100 μL thereof was added to each well of the 96-well plate. After 24-hour culture, the minimum inhibitory concentration was determined by measuring the absorbance at 600 nm with Enzyme-linked immuno-assay reader (Spectra MAX250, Molecular Devices Co.).
(In general: Dilution methods test growth across graded concentrations, often in twofold steps.)

The structures appear in SMILES notation. Converted amounts (≈) assume the structure as drawn.

Usually MIC stands for the smallest concentration in the dilution series that meets the test's criterion for growth inhibition. For orientation: MBC means the lowest tested concentration that kills the bacteria rather than only halting them. Take `CC1(C)C=Cc2cc(C(=O)/C=C/c3ccc(O)cc3)c(O)cc2O1` [No. 5, Bavachromene]: the “antibacterial activities against S. mutans in all conditions (in words)” value with S. mutans (ATCC 25175) (10 mM, 1 mM and 0.1 mM) is reported as “significant antibacterial activities”. For the same compound, the “diameter of the S. mutans inhibition zone, 0.1 mM antibacterial substance alone” value in the test on S. mutans (ATCC 25175) (5 μL of 0.1 mM substance on 6 mm paper disc, 24 h, positive control 10 μL/ml ampicillin) worked out at 6 mm. Also, the “diameter of the S. mutans inhibition zone, 1 mM antibacterial substance alone” value in the test on S. mutans (ATCC 25175) (5 μL of 1 mM substance on 6 mm paper disc, 24 h, positive control 10 μL/ml ampicillin) turned out to be 8.75 mm. For the same compound, the “diameter of the S. mutans inhibition zone, 10 mM antibacterial substance alone” value in the test with S. mutans (ATCC 25175) (5 μL of 10 mM substance on 6 mm paper disc, 24 h, positive control 10 μL/ml ampicillin) stood at 9.74 mm. Also, in the test on S. mutans (ATCC 25175) (screening from a total 100 substances), the “antibacterial activities against S. mutans (in words)” value was “significant antibacterial activities”. In the test on S. mutans [1] (primary test (Table 2)), the “Inhibition zone, Fluoride varnish + 1 mM substance” value was found to be 10.27 mm and the “Inhibition zone, Fluoride varnish + 10 mM substance” value is recorded as 10.60 mm. The “antibacterial activities of fluoride varnish mixed with substance compared with a fluoride varnish alone (in words)” value in the test with S. mutans [1] (primary test, 1 mM or 10 mM antibacterial substance) is “significant antibacterial activities”. Also, in the test with S. mutans [1] (secondary test (Table 3)), the “Inhibition zone, Fluoride varnish + 1 mM substance” value was 8.66 mm and the “Inhibition zone, Fluoride varnish + 10 mM substance” value is given as 10.48 mm. In the test on S. mutans [2], the “Semi-inhibition zone, Fluoride varnish + 1 mM substance” value was found to be 20.79 mm and the “Semi-inhibition zone, Fluoride varnish + 10 mM substance” value amounted to 25.235 mm. In addition, in the test on S. mutans [3] (24 h, BHI broth, 24-hour culture, absorbance at 600 nm, read-out: MIC), the MIC turned out to be 31 µM (≈ 9.99 µg/mL). Also, in the test on S. mutans [3] (read-out: MBC), the MBC was 125 µM (≈ 40.3 µg/mL).
